Where two headings read alike, the source gives them in different places.
Experiments:
[1] = system: human iPSC neurons and astrocytes treated with 5 μM sAβ42s; test: Focused small molecule screen, double culture (neuron, astrocyte), rescue from sAβ42s toxicity, high content imaging; assay type: cell-based; conditions: double culture, 5 μM sAβ42s; for percent rescue from sAβ42s toxicity at 50 µM / percent rescue from sAβ42s toxicity at 6.25 µM / percent rescue from sAβ42s toxicity at 12.5 µM / percent rescue from sAβ42s toxicity at 25 µM: Homo sapiens, iPSC
Description: FIGS. 11A-11D show synapse % rescue versus MAP2% rescue (FIGS. 11A-11B) and beta III tubulin % rescue versus MAP2% rescue (FIGS. 11C-11D), in neurons and astrocytes (FIGS. 11A and 11C) or neurons, astrocytes, and microglia (FIGS. 11B and 11D) treated with 5 μM sAβ42s and small molecules from a focused screen of known neuroprotective agents at multiple concentrations (50 μM, 25 μM, 12.5 μM and 6.25 μM (double culture), 50 μM, 12.5 μM, 3.1 μM and 0.78 μM (triple culture). Small molecules that prevented toxicity in dendrites (MAP2), synapses (Synapsin 1/2), cell count (CUX2), or axons ([…]) at or above 30% were considered hits (red dotted line).
Neurons from both NSC lines were evaluated by immunofluorescence staining. Briefly, cells were fixed with 4% PFA and 4% sucrose at room temperature for 20 minutes using Bravo automation. Fixed cells were then washed 2 times with PBS using Biotek 406 microplate washer (Beckman Coulter), followed by permeabilization and blocking by incubation with a solution containing 1×PBS, 0.1% Triton X-100, 2% donkey serum, and 1% BSA at room temperature for 30 minutes. Blocking solution was removed and cells were incubated with primary antibodies in blocking solution overnight at 4° C. After washing 6 times with PBS on Biotek 406 cell plate washer (Beckman Coulter), cells were then incubated with fluorophore-conjugated secondary antibodies for 1 hour at room temperature in the dark to avoid photobleaching. Cells were then washed 6 more times in with PBS before imaging. Fluorescent images were captured using IN Cell 6000 confocal microscope (GE Healthcare Life Sciences). The image analysis was performed with IN Cell 6000 analysis software.
Prior to experimentation, media volume in wells containing neurons was equalized with liquid handling automation (Bravo) in order to ensure precise control of concentrations. All Aβ42 oligomers, anti-Aβ, small molecules, inflammatory cytokines were prepared at 10× concentration and added to Neuronal Culture Media at an appropriate volume. For the repeated dosing experiments, the media were refreshed 50% at each dosing first, before adding Aβ42 oligomers, and/or anti-Aβ antibody at the specified final concentration.
In double (neuron, astrocyte) and triple (neuron, astrocyte, microglia) cultures, each small molecule listed in Table 1 was tested in the AD model paradigm at up to four concentrations. Molecules that characterized ≥30% rescue in any of the four measurements of dendrites area (MAP2), synapses count (synapsin 1/2), or cell count (CUX2), or axon area (Beta III Tubulin; “BT3”)) were classified as hits (FIGS. 11A-11D, Table 2, and Table 3).

[2] = system: human iPSC neurons, astrocytes and microglia treated with 5 μM sAβ42s; test: Focused small molecule screen, triple culture (neuron, astrocyte, microglia), rescue from sAβ42s toxicity; assay type: cell-based; conditions: for percent rescue from sAβ42s toxicity at 50 µM / percent rescue from sAβ42s toxicity at 0.78 µM / percent rescue from sAβ42s toxicity at 3.13 µM / percent rescue from sAβ42s toxicity at 12.5 µM: Homo sapiens, iPSC
In short: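 A hit was any compound giving ≥30% rescue of dendrite area (MAP2), synapse count, CUX2 cell count or axon area when dosed against 5 μM sAβ42s toxicity. Testing used iPSC-derived double (neuron/astrocyte) or triple (plus microglia) cultures, at four concentrations of 50, 25, 12.5 and 6.25 μM for double and 50, 12.5, 3.1 and 0.78 μM for triple cultures.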

C=C[C@@]1(C)CC(=O)[C@]2(O)[C@@]3(C)[C@@H](O)CCC(C)(C)[C@@H]3[C@H](OC(=O)CCN(C)C)[C@H](OC(C)=O)[C@@]2(C)O1.Cl [NKH 477]
% B3T rescue ([1]; 6.25 μM compound): 38%
% Cux2 rescue ([1]; 6.25 μM compound): 21%
% MAP2 rescue ([1]; 6.25 μM compound): 39%
% Synapse rescue ([1]; 6.25 μM compound): 7%
% B3T rescue ([1]; 12.5 μM compound): 38%
% Cux2 rescue ([1]; 12.5 μM compound): 24%
% MAP2 rescue ([1]; 12.5 μM compound): 45%
% Synapse rescue ([1]; 12.5 μM compound): 5%
% B3T rescue ([1]; 25 μM compound): 35%
% Cux2 rescue ([1]; 25 μM compound): 21%
% MAP2 rescue ([1]; 25 μM compound): 43%
% Synapse rescue ([1]; 25 μM compound): −4%
% B3T rescue ([1]; 50 μM compound): 38%
% Cux2 rescue ([1]; 50 μM compound): 45%
% MAP2 rescue ([1]; 50 μM compound): 44%
% Synapse rescue ([1]; 50 μM compound): −5%
% B3T rescue ([2]; 3.13 μM compound): 42%
% MAP2 rescue ([2]; 3.13 μM compound): 17%
% Synapse rescue ([2]; 3.13 μM compound): 12%
% B3T rescue ([2]; 12.50 μM compound): 49%
% MAP2 rescue ([2]; 12.50 μM compound): 9%
% Synapse rescue ([2]; 12.50 μM compound): 8%
% B3T rescue ([2]; 50.00 μM compound): 81%
% MAP2 rescue ([2]; 50.00 μM compound): 53%
% Synapse rescue ([2]; 50.00 μM compound): 38%

CC(=O)c1c(C)c2cnc(Nc3ccc(N4CCNCC4)cn3)nc2n(C2CCCC2)c1=O [PD 0332991 isethionate]
percent rescue from sAβ42s toxicity at 50 µM ([1]; 50 μM compound, read-out: % B3T rescue): 69%
percent rescue from sAβ42s toxicity at 50 µM ([1]; 50 μM compound, read-out: % Cux2 rescue): -37%
percent rescue from sAβ42s toxicity at 50 µM ([1]; 50 μM compound, read-out: % MAP2 rescue): -97%
percent rescue from sAβ42s toxicity at 50 µM ([1]; 50 μM compound, read-out: % Synapse rescue): -15%
percent rescue from sAβ42s toxicity at 50 µM ([2]; 50.00 μM compound, read-out: % B3T rescue): 90%
percent rescue from sAβ42s toxicity at 50 µM ([2]; 50.00 μM compound, read-out: % MAP2 rescue): -79%
percent rescue from sAβ42s toxicity at 50 µM ([2]; 50.00 μM compound, read-out: % Synapse rescue): -29%

COC(=O)C1(C)c2[nH]c3ccccc3c2CCN1C(=O)CCl (centres unmarked) [PDI Inhibitor 16F16]
% B3T rescue ([1]; 6.25 μM compound): 27%
% Cux2 rescue ([1]; 6.25 μM compound): 46%
% MAP2 rescue ([1]; 6.25 μM compound): 6%
% Synapse rescue ([1]; 6.25 μM compound): 5%
% B3T rescue ([1]; 12.5 μM compound): 3%
% Cux2 rescue ([1]; 12.5 μM compound): 45%
% MAP2 rescue ([1]; 12.5 μM compound): 1%
% Synapse rescue ([1]; 12.5 μM compound): −1%
% B3T rescue ([1]; 25 μM compound): −46%
% Cux2 rescue ([1]; 25 μM compound): 66%
% MAP2 rescue ([1]; 25 μM compound): −10%
% Synapse rescue ([1]; 25 μM compound): −8%
% B3T rescue ([1]; 50 μM compound): −22%
% Cux2 rescue ([1]; 50 μM compound): 34%
% MAP2 rescue ([1]; 50 μM compound): −12%
% Synapse rescue ([1]; 50 μM compound): −13%
% B3T rescue ([2]; 3.13 μM compound): 71%
% MAP2 rescue ([2]; 3.13 μM compound): 44%
% Synapse rescue ([2]; 3.13 μM compound): 43%
% B3T rescue ([2]; 12.50 μM compound): 43%
% MAP2 rescue ([2]; 12.50 μM compound): −6%
% Synapse rescue ([2]; 12.50 μM compound): 8%
% B3T rescue ([2]; 50.00 μM compound): 42%
% MAP2 rescue ([2]; 50.00 μM compound): −5%
% Synapse rescue ([2]; 50.00 μM compound): −1%

O=C1NC(=O)c2c1c1c3ccccc3n3c1c1c2c2ccccc2n1C1CCC3O1 [SB 218078]
% B3T rescue ([1]; 50 μM compound): 72%
% Cux2 rescue ([1]; 50 μM compound): −39%
% MAP2 rescue ([1]; 50 μM compound): −92%
% Synapse rescue ([1]; 50 μM compound): −15%
% B3T rescue ([2]; 0.78 μM compound): 38%
% MAP2 rescue ([2]; 0.78 μM compound): 10%
% Synapse rescue ([2]; 0.78 μM compound): 14%
% B3T rescue ([2]; 50.00 μM compound): −11%
% MAP2 rescue ([2]; 50.00 μM compound): 53%
% Synapse rescue ([2]; 50.00 μM compound): 19%

O=C1NC(=O)C(c2ccccc2[N+](=O)[O-])=C1Nc1ccc(O)c(Cl)c1 [SB 415286]
% B3T rescue ([1]; 50 μM compound): 39%
% Cux2 rescue ([1]; 50 μM compound): −13%
% MAP2 rescue ([1]; 50 μM compound): 19%
% Synapse rescue ([1]; 50 μM compound): 12%
% B3T rescue ([2]; 50.00 μM compound): 78%
% MAP2 rescue ([2]; 50.00 μM compound): 42%
% Synapse rescue ([2]; 50.00 μM compound): 40%

CN(C)S(=O)(=O)c1ccc2c(c1)/C(=C/c1cc3c([nH]1)CCCC3)C(=O)N2 [SU6656]
% B3T rescue ([1]; 6.25 μM compound): 4%
% Cux2 rescue ([1]; 6.25 μM compound): 101%
% MAP2 rescue ([1]; 6.25 μM compound): 5%
% Synapse rescue ([1]; 6.25 μM compound): 13%
% B3T rescue ([1]; 12.5 μM compound): 3%
% Cux2 rescue ([1]; 12.5 μM compound): 120%
% MAP2 rescue ([1]; 12.5 μM compound): 4%
% Synapse rescue ([1]; 12.5 μM compound): 11%
% B3T rescue ([1]; 25 μM compound): −37%
% Cux2 rescue ([1]; 25 μM compound): 126%
% MAP2 rescue ([1]; 25 μM compound): 3%
% Synapse rescue ([1]; 25 μM compound): 15%
% B3T rescue ([1]; 50 μM compound): −188%
% Cux2 rescue ([1]; 50 μM compound): 106%
% MAP2 rescue ([1]; 50 μM compound): 3%
% Synapse rescue ([1]; 50 μM compound): 11%
% B3T rescue ([2]; 0.78 μM compound): 80%
% MAP2 rescue ([2]; 0.78 μM compound): 58%
% Synapse rescue ([2]; 0.78 μM compound): 51%
% B3T rescue ([2]; 3.13 μM compound): 92%
% MAP2 rescue ([2]; 3.13 μM compound): 72%
% Synapse rescue ([2]; 3.13 μM compound): 64%
% B3T rescue ([2]; 12.50 μM compound): 71%
% MAP2 rescue ([2]; 12.50 μM compound): 53%
% Synapse rescue ([2]; 12.50 μM compound): 49%
% B3T rescue ([2]; 50.00 μM compound): 48%
% MAP2 rescue ([2]; 50.00 μM compound): 40%
% Synapse rescue ([2]; 50.00 μM compound): 36%

CCN(CC)CCNC(=O)c1c(C)[nH]c(/C=C2\C(=O)Nc3ccc(F)cc32)c1C [SU 11248]
% B3T rescue ([1]; 25 μM compound): −19%
% Cux2 rescue ([1]; 25 μM compound): 59%
% MAP2 rescue ([1]; 25 μM compound): 16%
% Synapse rescue ([1]; 25 μM compound): 4%
% B3T rescue ([1]; 50 μM compound): 4%
% Cux2 rescue ([1]; 50 μM compound): 115%
% MAP2 rescue ([1]; 50 μM compound): 7%
% Synapse rescue ([1]; 50 μM compound): 21%
% B3T rescue ([2]; 0.78 μM compound): 69%
% MAP2 rescue ([2]; 0.78 μM compound): 73%
% Synapse rescue ([2]; 0.78 μM compound): 68%
% B3T rescue ([2]; 3.13 μM compound): 74%
% MAP2 rescue ([2]; 3.13 μM compound): 88%
% Synapse rescue ([2]; 3.13 μM compound): 77%

CN1CCN(CCOc2cc(OC3CCOCC3)c3c(Nc4c(Cl)ccc5c4OCO5)ncnc3c2)CC1 [Saracatinib (AZD0530), Saracatinib]
percent rescue from sAβ42s toxicity at 6.25 µM ([1]; 6.25 μM compound, read-out: % B3T rescue): 62%
percent rescue from sAβ42s toxicity at 6.25 µM ([1]; 6.25 μM compound, read-out: % Cux2 rescue): 7%
percent rescue from sAβ42s toxicity at 6.25 µM ([1]; 6.25 μM compound, read-out: % MAP2 rescue): 61%
percent rescue from sAβ42s toxicity at 6.25 µM ([1]; 6.25 μM compound, read-out: % Synapse rescue): 32%
percent rescue from sAβ42s toxicity at 12.5 µM ([1]; 12.5 μM compound, read-out: % B3T rescue): 56%
percent rescue from sAβ42s toxicity at 12.5 µM ([1]; 12.5 μM compound, read-out: % Cux2 rescue): 13%
percent rescue from sAβ42s toxicity at 12.5 µM ([1]; 12.5 μM compound, read-out: % MAP2 rescue): 71%
percent rescue from sAβ42s toxicity at 12.5 µM ([1]; 12.5 μM compound, read-out: % Synapse rescue): 34%
percent rescue from sAβ42s toxicity at 25 µM ([1]; 25 μM compound, read-out: % B3T rescue): 30%
percent rescue from sAβ42s toxicity at 25 µM ([1]; 25 μM compound, read-out: % Cux2 rescue): 18%
percent rescue from sAβ42s toxicity at 25 µM ([1]; 25 μM compound, read-out: % MAP2 rescue): 65%
percent rescue from sAβ42s toxicity at 25 µM ([1]; 25 μM compound, read-out: % Synapse rescue): 10%
percent rescue from sAβ42s toxicity at 0.78 µM ([2]; 0.78 μM compound, read-out: % B3T rescue): 99%
percent rescue from sAβ42s toxicity at 0.78 µM ([2]; 0.78 μM compound, read-out: % MAP2 rescue): 72%
percent rescue from sAβ42s toxicity at 0.78 µM ([2]; 0.78 μM compound, read-out: % Synapse rescue): 65%
percent rescue from sAβ42s toxicity at 3.13 µM ([2]; 3.13 μM compound, read-out: % B3T rescue): 99%
percent rescue from sAβ42s toxicity at 3.13 µM ([2]; 3.13 μM compound, read-out: % MAP2 rescue): 73%
percent rescue from sAβ42s toxicity at 3.13 µM ([2]; 3.13 μM compound, read-out: % Synapse rescue): 65%
percent rescue from sAβ42s toxicity at 12.5 µM ([2]; 12.50 μM compound, read-out: % B3T rescue): 35%
percent rescue from sAβ42s toxicity at 12.5 µM ([2]; 12.50 μM compound, read-out: % MAP2 rescue): -12%
percent rescue from sAβ42s toxicity at 12.5 µM ([2]; 12.50 μM compound, read-out: % Synapse rescue): -2%
